From patent US20240082342A1, “PEPTIDE THERAPEUTICS FOR INCREASING LUNG CELL VIABILITY” (BOARD OF REGENTS, THE UNIVERSITY OF TEXAS SYSTEM, priority 2018, published 2024)
Entries after “also recorded” stand apart in the source; their conditions may differ.

Test system: A2Cs of miR-34a^fl/fl and miR-34a^cKO mice
Test: Tobacco smoke exposure of miR-34a fl/fl and miR-34a cKO mice
Format: in vivo, mouse
Conditions: for telomere shortening (qPCR): 20 weeks TS; for telomerase enzyme activity: TS
Procedure: To analyze the effect of cigarette smoke, mice were exposed to passive smoke from 40 research cigarettes over a 2-hour period once (2 h) or twice (4 h) daily for 5 days/week for 20 weeks (˜90 mg/m^3 total solid particulates) using a mechanical smoking chamber (Teague Enterprises, Davis, CA). Control mice were exposed to ambient air. At the 18th week, peptide treatment at a dosage of 30 μg/20 g body weight was initiated and continued on a daily basis for the next 14 days. At the end of the experiment, the mice were euthanized and used for the experiments.
To test the effect of chronic TS exposure induced lung injury, these mice were exposed to passive TS from 40 research cigarettes over a 4 h period 5 days/week for 20 weeks (˜90 mg/m3 total solid particulates) using a mechanical smoking chamber (Teague Enterprises, Davis, CA) as described earlier. (Bhandary et al, 2015). Control mice were kept in ambient air. After sixteen weeks of daily passive TS exposure, mice with TS exposure injury were treated with CSP7 at a dosage of 1.5 mg/kg body weight daily 5 days/week for the next four weeks. These mice were continued with daily exposure of 4 h of TS during CSP7 treatment. At the end of the experiment (after 20 weeks of TS exposure), the mice were euthanized, and lungs were utilized for further analyses. To expand the local delivery options of CSP7 to directly treat the damaged lung by air-jet milling for dry powder inhalation (DPI). Mice exposed to TSE were treated with CSP7 using a rotating brush generator for 15 min daily for 7 days. Fourteen days later, BLM mice were subjected to daily inhalation of micronized CSP7 (0.05 mg/kg/d) DP through air-jet-milling for seven consecutive days using a rotating brush exposure system. The rotating brush exposure system gave a consistent minimal chamber concentration of 0.1 mg/L. In order to match dosing of DP inhalation, animal exposure times were adjusted to approximately 15 minutes and an estimated dose of 0.05 mg/kg/d or 1.00 microgram/lung was administered.
Inducible conditional knockout (miR-34a^cKO) mice lacking miR-34a expression in A2ECs were generated by crossing miR-34a^fl/fl mice with SP-C^Cre/mTmG mice (FIG. 62A). RNA from A2ECs of miR-34a^fl/fl or miR-34a^cKO mice treated with tamoxifen were analyzed for miR-34a. […] After 20 weeks, A2ECs were isolated from these mice and analyzed for changes in miR-34a. […] A2ECs from miR-34a^fl/fl and miR-34a^cKo mice were next isolated and tested the lysates for changes in p53 and PAI-1 expression, and apoptosis. PTS induced p53 and PAI-1 expression in A2ECs of miR-34a^fl/fl mice. These changes were associated increased of A2EC apoptosis and senescence. […] These mice also resisted A2ECs apoptosis or senescence (FIG. 62C).

FTTFTVT (listed as Homo sapiens) [CSP7, heptapeptide fragment of the caveolin-1 scaffolding domain peptide CSP]
miR-34a expression in A2ECs (qRT-PCR) (WT or miR-34a^fl/fl mice, 20 weeks PTS): reduced miR-34a expression
telomere shortening (qPCR) (WT or miR-34a^fl/fl mice): protected from telomere shortening; also recorded: significant protection against TS-induced telomere shortening
miR-34a expression in A2ECs (miR-34a^cKO mice, 20 weeks PTS): minimal effect
telomere shortening (qPCR) (miR-34a^cKO mice): minimal effect
telomerase enzyme activity (miR-34a^cKO mice): did not upregulate telomerase activity; also recorded: limited effects on baseline telomerase activity
p53, PAI-1, A2EC apoptosis and senescence (miR-34a^fl/fl mice, PTS): inhibited p53, PAI-1 and A2EC apoptosis and senescence
telomerase enzyme activity (miR-34a^fl/fl mice): significant upregulation; also recorded: reversed

WGIDKAFFTTSTVTYKWFRY [CP, scrambled control peptide with the same amino acid composition as CSP, reference compound]
telomerase enzyme activity (miR-34a^fl/fl mice): little effect
